Measured values as given in article PMC10445283, “Boronate-Based Oxidant-Responsive Derivatives of Acetaminophen as Proinhibitors of Myeloperoxidase” (Chemical Research in Toxicology, 2023).
“And” between values parts separate entries of the source, which are not always exact repeats. Identical values can stand only once. “Also recorded” adds a separate entry of the source. Like-named read-outs stand apart in the source and are kept apart here.

Legend:
[1] = cited from earlier work
[2] = parameters: method as in PMID 34884784; settings: previously reported; cited from earlier work
[3] = parameters: method as in PMID 3395354; settings: pH 7; cited from earlier work
[4] = Spontaneous conversion of AMB-OH into acetaminophen (UPLC); type: physicochemical
Protocol: Ultra-performance liquid chromatograph (UPLC) Acquity (Waters Ltd.) equipped with a photodiode array detector and combined with an LCT Premier XE (Waters Ltd.) mass spectrometer was used for the chromatographic separation and identification of AMBB and AAPBA oxidation products. Separation was performed on a reversed-phase C18 UPLC column (Waters Acquity UPLC BEH C18 […], 50 × 2.1 mm) equilibrated with a water/acetonitrile (CH3CN) (90/10 v/v) mobile phase containing 0.1% (v/v) trifluoroacetic acid (TFA). The analytes were separated at a flow rate of 0.3 mL/min. During the first 0.5 min of analysis, the composition of the mobile phase remained unchanged. […] The injection volume was 2 μL, the sample temperature was 20 °C, and the column temperature was 40 °C. The electrospray source was operated at positive ion mode using the following parameters: capillary voltage 2.8 kV, sample cone voltage 60 V, desolvation temp. 350 °C, source temp. 100 °C, desolvation gas flow 800 L/h, and cone gas flow 50 L/h. The MCP detector voltage was 2.5 kV.
Figure 4 Kinetics of the conversion of AMB-OH into acetaminophen (AM). AMB-OH was produced in situ by mixing 50 μM AMBB with 50 μM NaOCl in 20 mM phosphate buffer, pH 7.4. (A) UPLC peak areas of AMB-OH (open squares) and AM (open circles) as a function of incubation time. UPLC peak areas were integrated for chromatograms extracted at 250 ± 1.2 nm. (B) Scheme of the quinone methide moiety elimination by AMB-OH to form AM. TEXT PRINTED IN THE PICTURE: (A) AM: ^1k = (1.85 ± 0.01) × 10^-4 s^-1 | (A) AMB-OH: ^1k = (2.00 ± 0.01) × 10^-4 s^-1

COX-2 = settings: reference not given; read-out: IC50 for the inhibition of COX-2; cited from earlier work
[5] = biological target: T1, MPO from human neutrophils (Homo sapiens, UniProt P05164); test: Taurine N-chloramine/TMB assay of MPO-derived HOCl; type: biochemical; settings: for IC50: read-out: IC50, inhibition of MPO chlorinating activity
T1 construct: MPO from human neutrophils was obtained from Athens Research and Technology (Athens, GA); purchased Athens Research and Technology (Athens, GA); host or cells: human neutrophils (natural source)
Protocol: (§1) The performance of AM and its derivatives in inhibition of the MPO chlorinating activity was evaluated using dose–response curves. The half maximal inhibitory concentration (IC50) values were determined on the basis of three independent measurements using a dose–response fitting mode implemented in OriginPro 2020 (OriginLab Corp.) software. […] MPO stock solution was prepared according to the supplier’s instruction by dissolving lyophilized powder of MPO in distilled water and was stored at 6 °C. The desired MPO activity was obtained by dilution of the stock solution with phosphate buffer (50 mM, pH 7.4) containing sodium chloride (0.1 M).
The diluted MPO solution was pipetted directly into the 96-well plate (1.45 μL). […] The prepared 96-well plate was incubated for 5 min, and the reaction was started by the addition of 110 μL per well of 20 μM H2O2 solution in water. The plate was incubated for another 5 min, and then 200 μL of the incubation mixtures was transferred to another 96-well plate prefilled with catalase solution (10 kU/mL, 2 μL per well) to remove unreacted hydrogen peroxide and to stop the reaction. Next, 50 μL per well of developing reagent composed of 2 mM TMB, 100 μM potassium iodide, and 0.32 M acetate buffer (pH 5.4) was added, and absorbance at 645 nm was measured by a Varioscan LUX (Thermo Fisher Scientific) plate reader controlled by SkanIt 6.0.2 software. The typical chlorinating activity of MPO during the inhibition experiments was 5 nM/s HOCl as determined using a CBA oxidation-based assay.[18] The concentration of H2O2 in the stock solution was determined spectrophotometrically at 240 nm using the molar extinction coefficient ε = 43.6 M^–1 cm^–1. The chemical structures of the TMB and CBA probes, along with their oxidation products, are presented in Supplementary Figure S5.
The MPO inhibitory activity of AM was compared with its two synthesized boronated derivatives (Figure 1). […] The resulting N-chloramine is then quantified in a reaction with N,N,N′,N′-tetramethylbenzidine catalyzed by potassium iodide.[20] […]

MPO = biological target: T2, MPO (Homo sapiens, UniProt P05164); test: MPO-dependent HOCl generation (summary values); type: biochemical
T2 construct: MPO from human neutrophils was obtained from Athens Research and Technology (Athens, GA); purchased Athens Research and Technology (Athens, GA); host or cells: human neutrophils (natural source)
Protocol: as §1

[6] = biological target: T1, MPO from human neutrophils; test: NBD-TM oxidation assay of MPO-derived HOCl; type: biochemical; settings: for IC50: NBD-TM 20 μM, MPO 0.1 nM, H2O2 10 μM, NaCl 0.1 M, pH 7.4, 5 min, read-out: IC50, inhibition of MPO chlorinating activity
Protocol: as §1
MPO-derived HOCl was monitored by an NBD-TM probe according to the previously described procedure (Supplementary Figure S5).[18] Briefly, to 96-well plates containing MPO, NBD-TM (40 μM), the studied compounds, phosphate buffer (100 mM, pH 7.4), and sodium chloride (0.2 M), 20 μM solution of hydrogen peroxide was added to start the reaction (mixing ratio 1:1 v/v). Then, the changes of fluorescence intensity were measured by Varioscan LUX using λex = 475 nm, λem = 575 nm, and slits width of 12 nm. This enabled the direct monitoring of fluorescent NBD-TSO formation.
The MPO inhibitory activity of AM was compared with its two synthesized boronated derivatives (Figure 1). […] In the taurine-based assay, HOCl oxidizes taurine to taurine N-chloramine. The resulting N-chloramine is then quantified in a reaction with N,N,N′,N′-tetramethylbenzidine catalyzed by potassium iodide.[20] In the case of the NBD-TM probe, in the presence of HOCl, the sulfur atom in the probe is oxidized to sulfoxide, producing a highly fluorescent NBD-TSO.[18]

[7] = Pseudo-first-order kinetics of reaction with H2O2 (UPLC); type: physicochemical; settings: pH 7.4, 20 mM phosphate buffer, 0.2–1 mM H2O2
Protocol: The rate constants for H2O2 and the studied boronic acids were determined directly under the pseudo-first-order conditions. Typically, the incubation mixtures contained boronic acid (20 μM), phosphate buffer (20 mM), CH3CN (2.5% v/v), and at least 10-fold excess of H2O2 (0.2–1 mM). The changes of analyte concentrations were followed by UPLC using a photodiode array detector (λmax = 250 ± 1.2 nm). On the basis of kinetic traces of AMBB and AAPBA decay (Supplementary Figure S6), the pseudo-first-order rate constants were determined. The second-order rate constants were calculated using the linear relationship between the determined pseudo-first-order rate constants and H2O2 concentrations.

[8] = Solubility in MPO assay mixture; type: physicochemical; settings: above 0.3 mM in assay mixture, pH 7.4, 3% methanol
Protocol: For AMBB, in the range of 0 nM to 0.3 mM, no inhibition of HOCl production was observed (Figure 1A).

[9] = Competition kinetics with FLBA: reaction with HOCl; type: physicochemical; settings: pH 7.4, 50 mM phosphate buffer
Protocol: (§2) The rate constants of the reactions of AMBB and AAPBA with ONOO^– and HOCl were determined by a competition kinetic method using FLBA as a reference compound.[18],[21],[22] In this approach, two pseudo-first-order reactions were assumed, a reaction between FLBA and the selected oxidant, ONOO^– or HOCl (eq 1), and between the investigated acetaminophen derivative (R-B(OH)2) and the oxidant (eq 2). Typically, the set of samples containing FLBA (20 μM), phosphate buffer (50 mM, pH 7.4), and AMBB or AAPBA (0–160 μM) in Eppendorf tubes was prepared. A concentrated basic solution of HOCl or ONOO^– was then added to the samples and rapidly mixed. The resulting concentration of an appropriate oxidant was 1.5 μM. Next, the samples were transferred to a 96-well plate, and the fluorescence intensity of the formed fluorescein was measured. The fluorescence intensity was followed with a Varioscan LUX plate reader using λex = 490 nm, λem = 515 nm, and slit widths of 12 nm.

[10] = Competition kinetics with FLBA: reaction with ONOO–; type: physicochemical; settings: pH 7.4, 50 mM phosphate buffer
Protocol: as §2

[11] = abstract summary, read-out: IC50 toward MPO-dependent HOCl generation

T1 sequence (P05164 279-745 limits assumed): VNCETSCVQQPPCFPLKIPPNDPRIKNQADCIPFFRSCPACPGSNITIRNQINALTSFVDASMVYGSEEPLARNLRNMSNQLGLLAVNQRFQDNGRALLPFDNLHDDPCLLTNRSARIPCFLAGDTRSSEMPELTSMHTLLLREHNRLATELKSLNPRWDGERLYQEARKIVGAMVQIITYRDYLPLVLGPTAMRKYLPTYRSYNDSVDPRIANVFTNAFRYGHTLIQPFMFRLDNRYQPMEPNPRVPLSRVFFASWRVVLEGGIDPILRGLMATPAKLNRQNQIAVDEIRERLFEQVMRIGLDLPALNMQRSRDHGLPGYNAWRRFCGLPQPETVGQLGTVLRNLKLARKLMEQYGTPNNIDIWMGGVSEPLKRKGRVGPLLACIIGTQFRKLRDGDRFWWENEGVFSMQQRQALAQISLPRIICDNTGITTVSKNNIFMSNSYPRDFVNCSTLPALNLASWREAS
T1 sequence (P05164 165-273 limits assumed): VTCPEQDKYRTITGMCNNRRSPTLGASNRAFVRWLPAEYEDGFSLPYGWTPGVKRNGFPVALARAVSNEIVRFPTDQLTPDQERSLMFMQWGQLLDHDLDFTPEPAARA
T2 sequence (P05164 279-745 limits assumed): as the sequence (P05164 279-745 limits assumed) above
T2 sequence (P05164 165-273 limits assumed): as the sequence (P05164 165-273 limits assumed) above

## O=C(O)c1ccccc1-c1c2ccc(=O)cc-2oc2cc(B(O)O)ccc12 [FLBA, reference compound]
[1]; previously reported
  rate constant of reaction with HOCl: 1.11 × 10^4 M^–1 s^–1
[2]
  rate constant of reaction with ONOO–: 1.0 × 10^6 M^–1 s^–1

## CC(=O)Nc1ccc(O)cc1 [Acetaminophen, N-(4-hydroxyphenyl)acetamide]
[3]
  electrode potential E°′ (AM-OH/AM-O·,H+ redox couple): 0.71 ± 0.01 V
[4]; pH 7.4, 20 mM phosphate buffer
  first-order rate constant of AM build-up from AMB-OH: (1.85 ± 0.01) × 10^-4 s^-1
COX-2
  IC50: […]
[5]
  IC50: 153 ± 9 µM
MPO; [11]
  IC50: 140 µM
MPO; rounded value in discussion, read-out: IC50 for the inhibition of MPO
  IC50: 150 µM
[6]
  IC50: 135 ± 9 µM

## O=c1[nH]c(=O)c2[nH]c(=O)[nH]c2[nH]1 [uric acid]
[1]; pH 7
  bimolecular rate constant of reaction with HOCl: 3 × 10^5 M^–1 s^–1

## CC(=O)Nc1ccc(OCc2ccc(B(O)O)cc2)cc1 [AMBB, (4-((4-Acetamidophenoxy)methyl)phenyl)-boronic Acid]
[7]
  second-order rate constant of reaction with H2O2: 1.67 M^–1 s^–1 and 1.67 ± 0.02 M^–1 s^–1
[8]
  solubility: limited solubility and precipitation
[5]; in the presence of taurine, 0 nM to 0.3 mM compound
  inhibition of HOCl production: no inhibition; also recorded: not show any inhibitory activity; also recorded: failed to inhibit the chlorination cycle
MPO; [11]
  IC50: > 300 µM
[6]; no taurine, effect seen in the 0.1–0.3 mM range
  inhibitory effect on HOCl production activity of MPO: shows the inhibitory effects; also recorded: exhibits inhibitory activity

## CC(=O)Nc1ccc(B(O)O)cc1 [AAPBA, 4-Acetamidophenylboronic Acid]
[7]
  second-order rate constant of reaction with H2O2: 1.9 ± 0.1 M^–1 s^–1
[5]
  IC50: 420 ± 60 µM
[9]
  second-order rate constant of reaction with HOCl: (1.72 ± 0.01) × 10^4 M^–1 s^–1
[10]
  second-order rate constant of reaction with ONOO–: (1.1 ± 0.3) × 10^6 M^–1 s^–1
[6]
  IC50: 394 ± 2 µM

## CC(=O)Nc1ccc(OCc2ccc(O)cc2)cc1 [AMB-OH, N-[4-(4-hydroxybenzyloxy)phenyl]acetamide]
[4]; pH 7.4, room temperature
  time to complete conversion into AM: 5 h
[4]; phosphate buffer, pH 7.4, pH 7.4, room temperature, read-out: half-life time (converted)
  half-life: 1 h
